≈ marks a conversion by molar mass, not a printed value. Like-named read-outs stand apart in the source and are kept apart here.
Tests used:
[1] = Solubility in artificial gastric fluid (FaSSGF); assay type: physicochemical; details: fassgf or other biorelevant, thermodynamic from solid
[2] = Solubility in artificial intestinal fluid (FaSSIF); assay type: physicochemical; details: thermodynamic from solid
[3] = Pharmacokinetic evaluation in beagle dogs; assay type: in vivo; details: plasma, 1 mg/kg
Experimental: A test was conducted to confirm whether the pharmacokinetic profiles of enavogliflozin/proline co-crystals were improved in beagle dogs. Each of the crystalline form A of enavogliflozin and the proline co-crystal was orally administered at a dose of 1 mg/kg to male beagle dogs by setting the crystalline form A of enavogliflozin as a control and the proline co-crystal as a comparative group, and blood collection was conducted before administration (0 hour), and for 0.083, 0.25, 0.5, 0.75, 1, 1.5, 2, 4, 6, 8, 12, and 24 hours (a total of 13 times). Blood drug concentrations were analyzed by LC-MS/MS using plasma separated from the collected samples, and pharmacokinetic parameters such as the maximum observed plasma concentration (Cmax), an area under the plasma concentration-time curve (AUClast and AUCinf), a time-to-maximum observed plasma concentration (Tmax), and a half-life (T1/2) were calculated and interpreted using the WinNonlin 5.0.1 program.

[4] = Stress stability evaluation, 60° C., 4 weeks, HPLC; assay type: physicochemical
[5] = crystalline form of Patent Document 2; cited from earlier work

Question: What does the source list for `OC[C@H]1O[C@@H](c2cc(Cc3ccc(C4CC4)cc3)c(Cl)c3c2CCO3)[C@H](O)[C@@H](O)[C@@H]1O` [Crystalline form A of enavogliflozin, enavogliflozin]?
Answer: solubility at 30 min ([1]; 30 minutes): 310 µg/mL (≈ 694 µM); solubility at 1 h ([1]; 1 hour): 340 µg/mL (≈ 761 µM); solubility at 2 h ([1]; 2 hours): 350 µg/mL (≈ 783 µM); solubility at 4 h ([1]; 4 hours): 350 µg/mL (≈ 783 µM); solubility at 30 min ([2]; 30 minutes): 690 µg/mL (≈ 1540 µM); solubility at 1 h ([2]; 1 hour): 940 µg/mL (≈ 2100 µM); solubility at 2 h ([2]; 2 hours): 1000 µg/mL (≈ 2240 µM); solubility at 4 h ([2]; 4 hours): 920 µg/mL (≈ 2060 µM); solubility at 0 h ([2]; Initial): 10000 µg/mL (≈ 22400 µM); AUC(0-inf) ([3]; male, beagle, dog, po): 4640 ng·h/mL; AUC(0-t) ([3]; male, beagle, dog, po): 4340 ng·h/mL; half-life ([3]; male, beagle, dog, po): 5.32 h; Cmax ([3]; male, beagle, dog, po, read-out: Cmax): 482 ng/mL; Tmax ([3]; male, beagle, dog, po, read-out: Tmax): 4 h; Purity (HPLC) in stress stability evaluation ([4]; 2 weeks, listed as Crystalline form of enavogliflozin): 98.8%; Purity (HPLC) in stress stability evaluation ([4]; 4 weeks, listed as Crystalline form of enavogliflozin): 99.1%; Purity (HPLC) in stress stability evaluation ([4]; Initial, listed as Crystalline form of enavogliflozin): 99.1%

Question: Which AUCinf ([3]; male beagle dogs, oral) does the source give for `OC[C@H]1O[C@@H](c2cc(Cc3ccc(C4CC4)cc3)c(Cl)c3c2CCO3)[C@H](O)[C@@H](O)[C@@H]1O` [Enavogliflozin/proline co-crystal] here?
Answer: Its AUCinf is 5341.58 ng·h/mL.

Question: And the AUClast ([3]; male beagle dogs, oral)?
Answer: The AUClast was 4428.20 ng·h/mL.

Question: And the Cmax ([3]; male beagle dogs, oral)?
Answer: Its Cmax is 482.60 ng/mL.

Question: And the T1/2 ([3]; male beagle dogs, oral)?
Answer: Its T1/2 is 6.10 h.

Question: What about the Tmax ([3]; male beagle dogs, oral) of the same compound?
Answer: Its Tmax is 5.20 h.

Question: And the “Purity (HPLC) in stress stability evaluation” value (“Purity (HPLC)” for short) ([4]; 2 weeks)?
Answer: The value was 99.9%.

Question: And the “Purity (HPLC)” value ([4]; 4 weeks)?
Answer: Its value is 99.8%.

Question: What about the “Thermal stability compared with crystalline form of enavogliflozin” value ([4]; 4 weeks) of the same compound?
Answer: The value was “equivalent to that of the crystalline form of enavogliflozin”.

Question: And the “Purity (HPLC)” value ([4]; Initial)?
Answer: Its value is 99.9%.

Question: With `OC[C@H]1O[C@@H](c2cc(Cc3ccc(C4CC4)cc3)c(Cl)c3c2CCO3)[C@H](O)[C@@H](O)[C@@H]1O` [enavogliflozin] as the compound, how does the “Solubility (water solubility)” value [5] read?
Answer: The value was 250 µg/mL (≈ 559 µM).
